# “Also recorded” adds a separate entry of the source.
# Biological target: protein kinase
# Experiment: HTS ATP-utilizing enzyme assay, off-chip mobility-shift format (Caliper HTS 250)
# Format: biochemical, human
# Settings: kinase(s) for which the compound exhibits protein kinase inhibitory activity; test compound 10 μM; active = greater than three-sigma from the mean activity of inactive compounds
# Text: The following procedures describe the reagent and plate preparation for a HTS of an ATP-utilizing enzyme, such as a protein kinase, run in an off-chip mobility-shift assay format. The following provides an HTS protocol for running a protein kinase HTS screen on a Caliper HTS 250 microfluidics system. The following parameters are dependent on the protein kinase used and can be determined by one skilled in the art as part of a typical assay development process. For example, the peptide substrate used can be identified from the current literature, by screening a peptide library of potential protein kinase substrates, or by other applicable means accepted in the field.
# The following table provides typical screen assay parameters appropriate for a Caliper HTS 250 microfluidics system.
# The reagents and buffers listed in the following table are generally applicable for developing and running an HTS screen on a human protein kinase using the Caliper HTS 250 system.
# The following reagents were prepared using the previously described buffers.
# A 2× Master Buffer solution was prepared by combining 200 mL of 1 M HEPES, pH 7.5, 2 mL of 10% Triton X-100, 20 mL of 10% BSA, and 778 mL of H2O.
# Assays to determine the kinase inhibitory activity of chemical entities of the present disclosure were performed using a Caliper HTS 250 microfluidics device, Greiner U-bottom assay plates, a Multidrop for transfer of reagents, and Biomek FX (AMNCBM03) software. Initially, 2.4 μL of a 1 mM solution of a test compound in 100% DMSO was added to a well of the Greiner U-bottom plate. A single Greiner U-bottom plate having 24×16 wells could include multiple test compounds. […] Using the Biomek FX, 10 μL of 0.5 M EDTA was added by the span-8 to wells, indicated as 100% Control and 2.4 μL of 100% DMSO was added by the span-8 to wells, indicated as 0% Control. […] The total reaction volume in each well was 25 μL, and the concentration of the test compound was 10 μM. The assay plate was incubated for 2.5 hrs at 20° C. to 22° C. […] The inhibition of the ATP-utilizing enzyme, such as a particular protein kinase, was determined by measuring the ratio of the peptide substrate to phosphorylated product for each well of the assay plate using the Caliper HTS 250 system.
# The use of three-sigma statistical limits represents a conservative method for declaring potential hits among targets. The three-sigma activity, as well as the mean population activity, can be different for each target enzyme.
row,Kinase,Structure (SMILES)
1,AKT1,Cc1cccc(OCc2nnc(SCC(=O)N3CCCc4ccccc43)n2Cc2ccco2)c1C
2,FYN,Cc1cc(NC(=O)CSc2nnc(-c3cccnc3)n2-c2ccc(F)cc2)no1
3,DAPK1,COc1ccc(-n2c(SCC(=O)N3CCC(C)CC3)nnc2-c2ccccc2)cc1
4,GSK3-β and GSK3-α and MSK2,O=C(CSc1nnc(-c2ccc(O)cc2)n1Cc1ccco1)N1c2ccccc2Sc2ccccc21
5,SRC and GSK3-α and AKT3,O=C(CSc1nnc(-c2ccncc2)n1Cc1ccco1)Nc1ccccc1
6,SYK,O=C(CSc1nnc(-c2ccccc2O)n1Cc1ccccc1)Nc1cccc(I)c1
7,FYN,CNC(=O)CSc1nnc(COc2ccccc2)n1Cc1ccccc1
8,PAK2,CCn1c(SCC(=O)N2CCOCC2)nnc1-c1ccc(S(=O)(=O)N2CCCCC2)cc1
9,FYN and PDGFRR-α and FLT-3,CCn1c(CNc2ccc(OC)cc2)nnc1SCC(=O)Nc1ccccc1C(F)(F)F
10,PAK2,Cc1csc(NC(=O)CSc2nnc(-c3cccnc3)n2C)n1
11,AURORA-A,COc1ccccc1-n1c(SCC(N)=O)nnc1-c1ccccc1O
12,AURORA-A,O=C(CSc1nnc(-c2ccccc2O)n1CCc1ccccc1)Nc1nnc(C(F)(F)F)s1
13,GSK3-α; also recorded: GSK3-β,CCN(CC)S(=O)(=O)c1ccc(-c2nnc(SCC(=O)Nc3nccs3)n2CC)cc1
14,AURORA-A,CCn1c(SCC(=O)N2CCCC2)nnc1-c1ccc(S(=O)(=O)N2CCCCCC2)cc1
15,AURORA-A,CCN(CC)C(=O)CSc1nnc(-c2ccc(S(=O)(=O)N3CCCCCC3)cc2)n1CC
16,DAPK1,CCn1c(SCC(=O)Nc2cc(C)ccc2OC)nnc1-c1ccc(S(=O)(=O)N2CCCCCC2)cc1
17,SYK,COc1ccc(C)cc1NC(=O)CSc1nnc(-c2ccc(Br)cc2)n1-c1ccccc1
18,GSK3-β; also recorded: GSK3-α,COc1ccc(-n2c(SCC(N)=O)nnc2-c2ccc(O)cc2)cc1
19,GSK3-β and SRC and GSK3-α,Cn1c(SCC(=O)Nc2cccc(C(F)(F)F)c2)nnc1-c1ccc(O)cc1
20,GSK3-β; also recorded: GSK3-α,Cc1ccc(NC(=O)CSc2nnc(-c3ccc(O)cc3)n2C)cc1
21,GSK3-β; also recorded: GSK3-α,Cc1ccc([N+](=O)[O-])cc1NC(=O)CSc1nnc(-c2ccc(O)cc2)n1C
22,CDK5,COCCCn1c(SCC(=O)N2CCCCC2)nnc1-c1ccc(C(C)(C)C)cc1
23,DAPK1,Cn1c(SCC(=O)N(CC(=O)NC2CCCCC2)C2CCCC2)nnc1-c1ccc(C(C)(C)C)cc1
24,CHEK2,COc1ccc(-n2c(CNc3ccccc3Cl)nnc2SCC(=O)Nc2ccc([N+](=O)[O-])cc2)cc1

row,Kinase,Structure (SMILES)
1,CHEK2,Cc1ccc(NCc2nnc(SCC(=O)Nc3cccc(O)c3)n2Cc2ccco2)c(C)c1
2,PAK2,CCn1c(CNc2cccc(Cl)c2)nnc1SCC(=O)NCc1ccco1
3,LCK,CCc1cccc(C)c1NC(=O)CSc1nnc(CNc2ccc(Cl)cc2)n1CC
4,CDK2-cyclinE,Cc1cccc(C)c1NC(=O)C(C)Sc1nnc(CNc2ccc(Cl)cc2)n1-c1ccccc1 (stereo not drawn)
5,FLT-3,NC(=O)CSc1nnc(CNc2ccc(F)cc2)n1-c1ccccc1
6,PDGFRR-α and PKA,COc1ccc(OCc2nnc(SCC(=O)Nc3ccccc3OC)n2C)cc1
7,INSR and CHEK1 and FYN,COc1ccc(NCc2nnc(SCC(=O)Nc3ccccc3C)n2C)cc1
8,PDGFRR-α and FYN and FLT-3,COc1ccc(NCc2nnc(SCC(=O)Nc3cccc(C(F)(F)F)c3)n2C)cc1
9,FYN and PDGFRR-α and FLT-3,COc1ccc(NCc2nnc(SCC(=O)Nc3ccccc3)n2-c2ccc(C)cc2)cc1
10,PDGFRR-α,COc1ccc(NCc2nnc(SCC(=O)Nc3ccccc3C(F)(F)F)n2-c2ccccc2)cc1
11,MAPKAPK-2,Cc1cc(C)nc(SCc2nnc(SCC(=O)Nc3ccccc3)n2-c2ccccc2)n1
12,DAPK1,Cc1ccc(NCc2nnc(SCC(=O)N3c4ccccc4Sc4ccccc43)n2C)cc1
13,AURORA-A,Cc1ccc(NCc2nnc(SCC(=O)Nc3ccc(C)cc3Br)n2-c2ccccc2)cc1
14,CHEK2,COc1ccc(-n2c(Cc3ccccc3)nnc2SCC(=O)Nc2ccccc2)cc1
15,AURORA-A,COc1ccccc1-n1c(SCC(=O)Nc2cccc(C(=O)O)c2)nnc1-c1ccccc1O
16,PDGFRR-α and AURORA-A and FYN,COc1ccc(NCc2nnc(S)n2-c2cccc(Cl)c2)cc1
17,GSK3-α and CDK1,COc1ccc(-n2c(S)nnc2COc2ccc3ccccc3c2)cc1
18,AKT1,Cc1ccc(S(=O)(=O)Nc2ccc(-c3nnc(SCC(=O)N4CCCCC4)n3C)cc2)cc1
19,PDGFRR-α,Cc1ccc(-n2c(C)nnc2SCc2nnc(S)n2-c2ccccc2)cc1
20,CDK1,COc1ccc(OCc2nnc(SCC(=O)Nc3ccc(C)cc3Br)n2-c2ccccc2)cc1
21,FYN and PDGFRR-α and FLT-3,COc1ccc(NCc2nnc(SCC(=O)Nc3ccc(C)cc3Br)n2C)cc1
22,PDGFRR-α and FYN and FLT-3,CCOc1ccc(NCc2nnc(SCC(=O)Nc3ccccc3Br)n2-c2ccccc2)cc1
23,MSK2,Cc1cccc(NC(=O)CSc2nnc(-c3ccc(O)cc3)n2-c2ccccc2)c1C
24,CDK1,COc1ccc(NC(=O)CSc2nnc(-c3ccccc3O)n2-c2ccccc2)c(OC)c1

row,Kinase,Structure (SMILES)
1,PDGFRR-α,CCOc1cc(NC(=O)c2cccs2)c(OCC)cc1NC(=O)CSc1nnc(-c2ccc(O)cc2)n1C
2,FYN,COCCCn1c(SCC(=O)Nc2c(C)cccc2C)nnc1-c1ccncc1
3,PDGFRR-α and FYN and FLT-3,COc1ccc(NCc2nnc(SCC(=O)Nc3cccc(C(C)=O)c3)n2-c2ccc(Cl)cc2)cc1
4,CHEK2,COc1ccc(-n2c(CNc3ccccc3Cl)nnc2SCC(=O)Nc2cccc(C(C)=O)c2)cc1
5,AURORA-A,CCn1c(SCC(=O)Nc2sc3c(c2C#N)CCCC3)nnc1-c1ccc(O)cc1
6,AKT1,CCn1c(COc2ccccc2)nnc1SCC(=O)Nc1sc2c(c1C#N)CCCC2
7,GSK3-β; also recorded: GSK3-α,Cc1cc(NC(=O)CSc2nnc(-c3ccc(O)cc3)n2C)ccc1NC(=O)c1ccccc1C
8,PDGFRR-α and FYN and c-TAK1,COc1ccc(NCc2nnc(SCC(=O)Nc3ccc(C(C)=O)cc3)n2-c2ccc(OC)cc2)cc1
9,GSK3-β; also recorded: GSK3-α,COc1ccc(-n2c(SC(C)C(=O)Nc3ccc(C(C)=O)cc3)nnc2-c2ccc(O)cc2)cc1 (stereo not drawn)
10,CDK1,CCn1c(CNc2cccc(Cl)c2)nnc1SCC(=O)Nc1ccc(C(C)=O)cc1
11,PDGFRR-α and FLT-3 and FYN,COc1ccc(NCc2nnc(SCC(=O)Nc3ccc(C(C)=O)cc3)n2C)cc1
12,PDGFRR-α and FYN and AURORA-A,COc1ccc(NCc2nnc(SCC(=O)Nc3ccc(Br)cc3)n2C)cc1
13,SGK1,CCC(=O)Nc1cc(NC(=O)CSc2nnc(-c3ccc(O)cc3)n2CC)ccc1C
14,GSK3-α,Cn1c(SCC(=O)Nc2nc3ccccc3s2)nnc1-c1ccco1
15,PDGFRR-α and FYN and GSK3-β,CCn1c(CNc2ccc(OC)cc2)nnc1SCC(=O)Nc1ccccc1-c1ccccc1
16,CDK1,CCOC(=O)CN(C(=O)CSc1nnc(-c2ccncc2)n1CCCN(C)C)c1cccc([N+](=O)[O-])c1
17,AURORA-A,CCOC(=O)CN(C(=O)CSc1nnc(-c2ccccc2O)n1CCc1ccccc1)c1cccc([N+](=O)[O-])c1
18,CDK2-cyclinA,CCOC(=O)c1c(NC(=O)CSc2nnc(-c3ccccc3O)n2CCc2ccccc2)sc(C)c1C
19,GSK3-β; also recorded: GSK3-α,CCOC(=O)c1sc(NC(=O)CSc2nnc(-c3ccc(O)cc3)n2CC2CCCO2)nc1C (stereo not drawn)
20,AURORA-A,CCn1c(CNc2cccc(Cl)c2)nnc1SCC(=O)Nc1ccccc1C(=O)OC
21,PDGFRR-α and AURORA-A and FYN,COC(=O)c1ccccc1NC(=O)CSc1nnc(CNc2ccc(OC)cc2)n1-c1ccc(C)cc1
22,AURORA-A,COC(=O)c1ccc(NC(=O)CSc2nnc(-c3ccccc3O)n2-c2ccccc2OC)cc1

row,Structure (SMILES),Kinase
1,COc1ccc(-n2c(S)nnc2-c2ccc(NS(=O)(=O)c3ccc(C)cc3)cc2)cc1,GSK3-β; also recorded: GSK3-α; also recorded: AURORA-A
2,Cc1ccc(S(=O)(=O)Nc2ccc(-c3nnc(S)n3C)cc2)cc1,AURORA-A; also recorded: CDK2-cyclinA; also recorded: CHEK2
3,CCn1c(SCC(=O)Nc2nc3ccccc3s2)nnc1-c1cccnc1,GSK3-β; also recorded: GSK3-α; also recorded: CDK2-cyclinE
4,CCOC(=O)c1cccc(NC(=O)CSc2nnc(CNc3ccc(OC)cc3)n2-c2ccc(OC)cc2)c1,AURORA-A; also recorded: PDGFRR-α; also recorded: CHEK2
5,CCOC(=O)c1ccc(NC(=O)CSc2nnc(-c3ccc(O)cc3)n2C)cc1,GSK3-β; also recorded: AURORA-A; also recorded: GSK3-α

# — patent publication US20050288347A1, “Certain triazole-based compounds, compositions, and uses thereof” (priority 2004, published 2005)
